This note sets out measurements from patent EP2970215B1, “PYRROLIDINE DERIVATIVES, PHARMACEUTICAL COMPOSITIONS CONTAINING THEM, AND THEIR USE IN THERAPY” (AbbVie Deutschland GmbH & Co. KG, priority 2013, dated 2014).

The first assay addresses T1, human GlyT1c transporter (Homo sapiens, UniProt P48067).
T1 construct: expressed in transfected cells; host or cells: CHO cells (recombinant; line hGlyT1c_5_CHO is named for the uptake assay)
T1 sequence (P48067 1-706): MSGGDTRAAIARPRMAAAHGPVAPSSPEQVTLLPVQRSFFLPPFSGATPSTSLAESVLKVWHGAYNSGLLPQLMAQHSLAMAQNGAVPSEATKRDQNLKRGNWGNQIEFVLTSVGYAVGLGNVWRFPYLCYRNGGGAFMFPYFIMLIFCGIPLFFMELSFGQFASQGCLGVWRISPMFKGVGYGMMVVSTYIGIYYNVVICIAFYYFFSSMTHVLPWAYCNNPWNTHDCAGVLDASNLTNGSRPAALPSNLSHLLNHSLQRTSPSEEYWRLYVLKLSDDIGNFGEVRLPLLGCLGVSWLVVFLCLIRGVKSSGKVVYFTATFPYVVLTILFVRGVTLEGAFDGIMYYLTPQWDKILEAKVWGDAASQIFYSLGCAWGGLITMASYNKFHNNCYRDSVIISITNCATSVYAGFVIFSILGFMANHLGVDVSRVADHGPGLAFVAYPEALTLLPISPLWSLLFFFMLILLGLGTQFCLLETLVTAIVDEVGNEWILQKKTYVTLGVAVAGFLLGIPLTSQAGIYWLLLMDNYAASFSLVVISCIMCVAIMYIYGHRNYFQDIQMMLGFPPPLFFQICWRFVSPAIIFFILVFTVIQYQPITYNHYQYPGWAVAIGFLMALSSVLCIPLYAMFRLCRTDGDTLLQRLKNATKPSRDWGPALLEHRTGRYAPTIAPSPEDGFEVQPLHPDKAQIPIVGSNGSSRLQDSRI
Nature of the assay: Radioligand binding assay using recombinant CHO cell membranes expressing human GlyT1. The conditions noted are these: radioligand binding to human GlyT1c transporter-expressing membranes. An excerpt: 2. Radioligand binding assays using recombinant CHO cell membranes expressing human GlyT1: […]
Consider `Cn1cnc(S(=O)(=O)N2C[C@@H](Nc3ccc(F)c(Cl)c3)[C@H](c3ncccc3F)C2)c1` (relative stereo) [Example 771, Trans-N-(3-chloro-4-fluorophenyl)-4-(3-fluoropyridin-2-yl)-1-[(1-methyl-1H-imidazol-4-yl)sulfonyl]pyrrolidin-3-amine], for which the Ki is at most 100 nM.
On the same count and under the same terms, with `Cn1cnc(S(=O)(=O)N2C[C@H](NCc3cccc4ccnn34)[C@@H](c3ccccc3)C2)c1` [Example 555, (3R,4S)-1-[(1-methyl-1H-imidazol-4-yl)sulfonyl]-4-phenyl-N-(pyrazolo[1,5-a]pyridin-7-ylmethyl)pyrrolidin-3-amine] the figure was at most 10000 nM; with `Cn1cnc(S(=O)(=O)N2C[C@@H](Nc3ccc(Cl)c(Cl)c3)[C@H](c3ccccc3)C2)c1` (relative stereo) [Example 218, trans-N-(3,4-dichlorophenyl)-1-[(1-methyl-1H-imidazol-4-yl)sulfonyl]-4-phenylpyrrolidin-3-amine], at most 1000 nM.
On the same count and under the same terms, with `COCCCCN[C@H]1CN(S(=O)(=O)c2cn(C)cn2)C[C@@H]1c1ccccc1` [Example 647, (3R,4S)-N-(4-methoxybutyl)-1-[(1-methyl-1H-imidazol-4-yl)sulfonyl]-4-phenylpyrrolidin-3-amine] the figure was at most 10000 nM; with `Cn1cnc(S(=O)(=O)N2C[C@@H](CNc3ccc(C(F)(F)F)cc3Cl)[C@H](c3ccc(F)cc3)C2)c1` (relative stereo) [Example 332, 2-Chloro-N-({trans-4-(4-fluorophenyl)-1-[(1-methyl-1H-imidazol-4-yl)sulfonyl]pyrrolidin-3-yl}methyl)-4-(trifluoromethyl)aniline], at most 100 nM.
With `Cn1cnc(S(=O)(=O)N2C[C@@H](Nc3ccccc3)[C@H](c3ccccc3)C2)c1` (relative stereo) [Example 29, trans-1-[(1-methyl-1H-imidazol-4-yl)sulfonyl]-N,4-diphenylpyrrolidin-3-amine], the Ki is at most 1000 nM.
As for `Cc1ccc(CCN[C@H]2CN(S(=O)(=O)c3cn(C)cn3)C[C@@H]2c2ccccc2)cc1` [Example 461, (3R,4S)-1-[(1-methyl-1H-imidazol-4-yl)sulfonyl]-N-[2-(4-methylphenyl)ethyl]-4-phenylpyrrolidin-3-amine], the Ki was at most 1000 nM.
In the case of `Cn1cnc(S(=O)(=O)N2C[C@@H](Nc3ccc4ccncc4c3)[C@H](c3ccccc3)C2)c1` (relative stereo) [Example 241, N-{trans-1-[(1-methyl-1H-imidazol-4-yl)sulfonyl]-4-phenylpyrrolidin-3-yl}isoquinolin-7-amine], the Ki was at most 10000 nM.
Take `Cn1cnc(S(=O)(=O)N2C[C@@H](NC(=O)c3cccc(F)c3)[C@H](c3ccccc3)C2)c1` (relative stereo) [Example 18, 3-fluoro-N-{trans-1-[(1-methyl-1H-imidazol-4-yl)sulfonyl]-4-phenylpyrrolidin-3-yl}benzamide]: the inhibition constant (Ki) was at most 10000 nM.
Regarding `Cn1cnc(S(=O)(=O)N2C[C@@H](Nc3cccc(C(F)(F)F)c3)[C@H](c3ccccc3Cl)C2)c1` (relative stereo) [Example 255, trans-4-(2-chlorophenyl)-1-[(1-methyl-1H-imidazol-4-yl)sulfonyl]-N-[3-(trifluoromethyl)phenyl]pyrrolidin-3-amine], the Ki was at most 100 nM.
As for `Cn1cnc(S(=O)(=O)N2C[C@@H](C(=O)Nc3ccc(Cl)c(OC(F)(F)F)c3)[C@H](c3ccc(F)cc3)C2)c1` (relative stereo) [Example 371, Trans-N-[4-chloro-3-(trifluoromethoxy)phenyl]-4-(4-fluorophenyl)-1-[(1-methyl-1H-imidazol-4-yl)sulfonyl]pyrrolidine-3-carboxamide], the Ki was at most 1000 nM.
Still for that read-out and setting: the figure for `Cc1ccc(N[C@@H]2CN(S(=O)(=O)c3cn(C)cn3)C[C@H]2c2ccc(F)cc2)cc1` (relative stereo) [Example 86, trans-4-(4-fluorophenyl)-1-[(1-methyl-1H-imidazol-4-yl)sulfonyl]-N-(4-methylphenyl)pyrrolidin-3-amine] is at most 1000 nM; for `Cn1cnc(S(=O)(=O)N2C[C@@H](C(=O)Nc3ccc(F)c(Cl)c3)[C@H](c3ccc(F)cc3)C2)c1` (relative stereo) [Example 275, trans-N-(3-chloro-4-fluorophenyl)-4-(4-fluorophenyl)-1-[(1-methyl-1H-imidazol-4-yl)sulfonyl]pyrrolidine-3-carboxamide] it is at most 1000 nM; for `CC(C)c1cc(N[C@H]2CN(S(=O)(=O)c3cn(C)cn3)C[C@@H]2c2ccc(F)cc2)ncn1` [Example 614, N-{(3R,4S)-4-(4-fluorophenyl)-1-[(1-methyl-1H-imidazol-4-yl)sulfonyl]pyrrolidin-3-yl}-6-(propan-2-yl)pyrimidin-4-amine] it is at most 1000 nM.
For the compound `Cn1cnc(S(=O)(=O)N2C[C@@H](Nc3ccc(F)c(C(F)(F)F)c3)[C@H](c3ncccc3F)C2)c1` (relative stereo) [Example 767, Trans-4-(3-fluoropyridin-2-yl)-N-[4-fluoro-3-(trifluoromethyl)phenyl]-1-[(1-methyl-1H-imidazol-4-yl)sulfonyl]pyrrolidin-3-amine], the Ki was at most 100 nM.
Take `Cn1cnc(S(=O)(=O)N2CC(NCc3ccc(C(F)(F)F)cc3)C(O)(c3ccccc3)C2)c1` (centres unmarked) [Example 539, 1-[(1-methyl-1H-imidazol-4-yl)sulfonyl]-3-phenyl-4-{[4-(trifluoromethyl)benzyl]amino}pyrrolidin-3-ol]: the inhibition constant Ki is at most 10000 nM.
`Cn1cnc(S(=O)(=O)N2C[C@@H](C(=O)NCc3cccc(OC(F)(F)F)c3)[C@H](c3ccc(F)cc3)C2)c1` (relative stereo) [Example 661, Trans-4-(4-fluorophenyl)-1-[(1-methyl-1H-imidazol-4-yl)sulfonyl]-N-[3-(trifluoromethoxy)benzyl]pyrrolidine-3-carboxamide]: the Ki was at most 1000 nM.
On the same count and under the same terms, with `Cn1cnc(S(=O)(=O)N2C[C@H](NCCCc3cccc(Cl)c3)[C@@H](c3ccccc3)C2)c1` [Example 471, (3R,4S)-N-[3-(3-chlorophenyl)propyl]-1-[(1-methyl-1H-imidazol-4-yl)sulfonyl]-4-phenylpyrrolidin-3-amine] the figure was at most 100 nM.
`Cn1cnc(S(=O)(=O)N2C[C@H](Nc3ccc(F)cc3)[C@@H](c3ccc(F)cc3)C2)c1` [Example 330, (3R,4S)-N,4-bis(4-fluorophenyl)-1-[(1-methyl-1H-imidazol-4-yl)sulfonyl]pyrrolidin-3-amine]: the Ki was at most 100 nM.
For `Cn1cnc(S(=O)(=O)N2C[C@@H](C(=O)Nc3ccc(F)c(C(F)(F)F)c3)[C@H](c3ccc(F)cc3)C2)c1` (relative stereo) [Example 274, trans-4-(4-fluorophenyl)-N-[4-fluoro-3-(trifluoromethyl)phenyl]-1-[(1-methyl-1H-imidazol-4-yl)sulfonyl]pyrrolidine-3-carboxamide], the Ki was at most 100 nM.
With `Cn1cnc(S(=O)(=O)N2C[C@H](Nc3cc(OCC(F)(F)F)c(Cl)cn3)[C@@H](c3ccc(F)cc3)C2)c1` [Example 806, 5-chloro-N-{(3R,4S)-4-(4-fluorophenyl)-1-[(1-methyl-1H-imidazol-4-yl)sulfonyl]pyrrolidin-3-yl}-4-(2,2,2-trifluoroethoxy)pyridin-2-amine], the inhibitory constant (Ki) was at most 10 nM.
Same read-out and setting: the figure for `Cn1cnc(S(=O)(=O)N2C[C@@H](NCc3ccncc3)[C@H](c3ccc(F)cc3)C2)c1` (relative stereo) [Example 270, trans-4-(4-fluorophenyl)-1-[(1-methyl-1H-imidazol-4-yl)sulfonyl]-N-(pyridin-4-ylmethyl)pyrrolidin-3-amine] is at most 10000 nM; for `CCCS(=O)(=O)N1C[C@@H](NC(=O)c2cccc(C(F)(F)F)c2Cl)[C@H](c2ccccc2)C1` (relative stereo) [Example 127, 2-chloro-N-[trans-4-phenyl-1-(propylsulfonyl)pyrrolidin-3-yl]-3-(trifluoromethyl)benzamide] it is at most 10000 nM.

The same assay, now with this note: radioligand binding, recombinant CHO cell membranes expressing human GlyT1c.
Consider “2-[(1-methyl-1H-imidazol-4-yl)sulfonyl]-N-[4-(trifluoromethyl)pyridin-2-yl]-2,3,3a,8-tetrahydroindeno[1,2-c]pyrrol-8a(1H)-amine [Example 892]”, for which the inhibition constant Ki is at most 100 nM.
`Cc1cc(N[C@@H]2CN(S(=O)(=O)c3cn(C)cn3)C[C@H]2C2CCCO2)ccc1F` (relative stereo) [Example 845, Trans-N-(4-fluoro-3-methylphenyl)-1-[(1-methyl-1H-imidazol-4-yl)sulfonyl]-4-(tetrahydrofuran-2-yl)pyrrolidin-3-amine]: the Ki was at most 1000 nM.
As to `Cn1cnc(S(=O)(=O)N2C[C@@H](Nc3cccc(OCC(F)(F)F)c3)[C@H](C3CCCO3)C2)c1` (relative stereo) [Example 819, Trans-1-[(1-methyl-1H-imidazol-4-yl)sulfonyl]-4-(tetrahydrofuran-2-yl)-N-[3-(2,2,2-trifluoroethoxy)phenyl]pyrrolidin-3-amine], the Ki was at most 100 nM.
